Here are results for nine molecules from US5387585A, “Imidazodiazepine derivatives” (Hoffmann-La Roche Inc., priority 1991, dated 1995).

Assay [1] concerns the target central benzodiazepine receptors. The assay can be described thus: 3H-Flumazenil binding test in vitro. The following applies: inhibition of specific binding of tritiated flumazenil, rat cortex. How it is done:
3H-Flumazenil binding test
The affinity of compounds of formula I to the central benzodiazepine receptors was established in vitro according to the methods described in Nature 294, 763-765 (1981) and J. Neurochemistry 37, 714-722 (1981). According to these methods, the inhibition of the binding of tritiated flumazenil to the specific benzodiazepine receptors in the cortex of rats by the respective test substances is determined. The IC50 ("50% inhibiting concentration") denotes that concentration of the respective test substance which brings about a 50 percent inhibition of the specific binding of tritiated flumazenil to the specific benzodiazepine receptors in the cortex of rats.

Assay [2] deals with female mice (Charles-River). The assay can be described thus: Reversal of the action of meclonazepam in the rotating rod test. Format: in vivo. The following applies: iv, 0.5 h; mouse, i.v., after 5 mg/kg meclonazepam i.p.; 50% of animals remain on rod; read-out: Anti-meclonazepam, rotating rod, mouse, ID50. How it is done:
Reversal of the action of meclonazepam in the rotating rod test
Test description: female mice (Charles-River, Pans) weighing 19-21 g are used, They have free access to feed and drinking water up to 1 h; before the beginning of the test. They are brought into the test laboratory at lent 30 min. before the test.
In the rotating rod test the animals are placed on a horizontally arranged, smooth metal rod having a diameter of 3 cm, which is rotated at 2 revolutions per min. Initially, the animals are given the opportunity of familiarizing themselves with the test situation for 30sec. Subsequently, those animals which succeed in remaining on the rod for at least 1 min. are selected.
Determination of the reversal of the activity of meclonazepam: 5 mg/kg of meclonazepam are administered intraperitonally to the animals as a suspension in a 0.3% aqueous Tween 80 solution. This causes an inability to stay on the rotating red, which lasts for several hours. 20 min. later, a fine suspension of the test preparation in a 0.3% Tween 80 solution in water is administered intravenously. 30 min. later, it is determined whether the animals can stay on the rod for at least I min. The dosage at which 50% of the animals are capable of remaining on the rod is determined (ID50).

The subject of another assay is rat. Nature of the assay: Conflict test in the rat. Format: in vivo. Particulars: po, 30 minutes before the 1-hour conflict test, read-out: Conflict test, rat, FSD (first significant anxiolytically-active dosage). The method, then: The test apparatus is a one-key Skinner box having a feed pellet dispenser. At least 8 hungry rats are usually employed per substance and dosage for the testing of potential anxiolytics. Rats which respond to the known anxiolytic chlorodiazepoxide are used. The test substances, which are dissolved or suspended in a mixture of 10 ml of distilled water and 2 drops of Tween 80, are administered to the test animals by means of a probang 30 minutes before the 1-hour conflict test. During the test, in which each press of the key for a feed pellet is combined with a foot shock (conflict), the number key activations is registered. Each test animal serves as its own control in that it is pre-treated once with test substance and once with sodium chloride solution.
The first significant anxiolytically-active dosage (FSD) is determined with the Wilcoxon test (comparison of pairs) by comparing directly the number of key activations in the main test (feed pellet +foot shock after pre-treatment with test substance) with the number of key activations in the control test (feed pellet +foot shock after pre-treatment with sodium chloride solution).

The next assay relates to Male DBA 2J mice. Nature of the assay: Audiogenic seizures (anticonvulsive test). Particulars: po, 0.5 h; mouse, p.o., prevention of tonic convulsions in 50% of animals, 30 minutes before test; read-out: Audiogenic seizure, mouse, ED50. Format: in vivo. The method, then:
The anticonvulsive properties of the compounds of formula I can be determined, for example, in the test described hereinafter.
The test apparatus is a soundproofed one-key box having a built-in sound source. Male DBA 2J mice aged 21 days and weighing 7-11 g are employed for the testing of the substances. These mice are an animal model for epilepsy in which sonic irradiation causes seizures. The test substances are employed as aqueous suspensions of different concentration and are administered to the experimental animals orally or intraperitonally in an amount of 10 ml/kg 30 minutes before the beginning of the test. The test animals are exposed for 60 seconds to a sonic irradiation of 110 dB/14 KHz. This produces in untreated animals symptoms such as racing around, cronic seizures and tonic convulsions. The ED50 value, that is, that dosage of a test substance which in :50% of the test animals prevents the tonic convulsions caused by the sonic irradiation, is determined.

Turning to `c1ccc2c(c1)-c1ncnn1Cc1c(-c3nc(C4CC4)no3)ncn1-2` [A, 10-(3-cyclopropyl-1,2,4-oxadiazol-5-yl)-9H-imidazo[1,5-a][1,2,4]triazolo[1,5-d][1,4]benzodiazepine], the IC50 (as a rule, the point on the concentration scale where inhibition reaches its midpoint) in assay [1] was 1.3 nM. The ED50 in assay [2] stood at 1.5 mg/kg. For the same molecule, the minimal effective dose with rat is 0.3 mg/kg.

Regarding `Fc1ccc2c(c1)-c1ncnn1Cc1c(-c3nc(C4CC4)no3)ncn1-2` [B, 10-(3-cyclopropyl-1,2,4-oxadiazol-5-yl)-3-fluoro-9H-imidazo[1,5-a][1,2,4]triazolo[1,5-d][1,4]benzodiazepine], in assay [1], the IC50 stood at 2.5 nM. Besides, the ED50 in assay [2] is 0.8 mg/kg; in the assay with Male DBA 2J mice, 0.27 mg/kg. Further, the minimal effective dose with rat is 0.1 mg/kg.

As for `Fc1ccc2c(c1)-c1ncnn1Cc1c(-c3noc(C4CC4)n3)ncn1-2` [C, 10-(5-cyclopropyl-1,2,4-oxadiazol-3-yl)-3-fluoro-9H-imidazo[1,5-a][1,2,4]triazolo[1,5-d][1,4]benzodiazepine], the IC50 in assay [1] is 0.91 nM. The ED50 in assay [2] came out at 0.17 mg/kg; in the assay on Male DBA 2J mice, 0.015 mg/kg. Further, the minimal effective dose with rat worked out at 0.003 mg/kg.

In the case of `c1ccc2c(c1)-c1ncnn1Cc1c(-c3noc(C4CC4)n3)ncn1-2` [D, 10-(5-cyclopropyl-1,2,4-oxadiazol-3-yl)-9H-imidazo[1,5-a][1,2,4]triazolo[1,5-d][1,4]benzodiazepine], the IC50 in assay [1] is 0.33 nM. In addition, the ED50 came out at 0.08 mg/kg in assay [2] and 4.2 mg/kg with Male DBA 2J mice. Also, the minimal effective dose in the assay with rat came out at 3 mg/kg.

With `Clc1ccc2c(c1)-c1nccn1Cc1c(-c3noc(C4CC4)n3)ncn1-2` [E, 3-chloro-10-(5-cyclopropyl-1,2,4-oxadiazol-3-yl)-9H-diimidazo[1,5-a:1',2'-d][1,4]benzodiazepine], in assay [1], the IC50 is 2.9 nM. Also, the minimal effective dose with rat came out at 1 mg/kg. In addition, the ED50 in the assay on Male DBA 2J mice stood at 0.21 mg/kg.

Molecule `CCOCc1nc(-c2ncn3c2Cn2ncnc2-c2cc(F)ccc2-3)no1` [F, 10-[5-(ethoxymethyl)-1,2,4-oxadiazol-3-yl]-3-fluoro-9H-imidazo[1,5-a][1,2,4]triazolo[1,5-d][1,4]benzo-diazepine] registered an IC50 in assay [1] of 3 nM. Besides, the values for the ED50 (in assay [2]; with Male DBA 2J mice) were 1.8 mg/kg and 0.11 mg/kg, respectively. For the same molecule, the minimal effective dose with rat came to 0.1 mg/kg.

For `Clc1cccc2c1-c1ncnn1Cc1c(-c3noc(C4CC4)n3)ncn1-2` [G, 4-Chloro-10-(5-cyclopropyl-1,2,4-oxadiazol-3-yl)-9H-imidazo[1,5-a][1,2,4]triazolo[1,5-d][1,4]benzodiazepine], the IC50 in assay [1] stood at 0.6 nM. For the same molecule, the ED50 in assay [2] stood at 0.0047 mg/kg.

Turning to `Clc1cccc2c1-c1nccn1Cc1c(-c3nc(C4CC4)no3)ncn1-2` [H, 4-chloro-10-(3-cyclopropyl-1,2,4-oxadiazol-5-yl)-9H-diimidazo[1,5-a:1',2'-d][1,4]benzodiazepine], the concentration for half-maximal inhibition (IC50) in assay [1] is 0.29 nM. Further, the ED50 in assay [2] worked out at 0.1 mg/kg; with Male DBA 2J mice, 0.0039 mg/kg. The minimal effective dose with rat was determined as 0.001 mg/kg.

In assay [1], `Clc1cccc2c1-c1nccn1Cc1c(-c3noc(C4CC4)n3)ncn1-2` [I, 4-chloro-10-(5-cyclopropyl-1,2,4-oxadiazol-3-yl)-9H-diimidazo[1,5-a:1',2'-d][1,4]benzodiazepine] returned an IC50 of 0.3 nM. Also, in the assay on rat, the minimal effective dose is 0.03 mg/kg. Besides, the ED50 with Male DBA 2J mice was 0.00011 mg/kg.
